Laboratory results reported in ChEMBL document CHEMBL3259797, “Radiosyntheses and in vivo evaluation of carbon-11 PET tracers for PDE10A in the brain of rodent and nonhuman primate” (Bioorg Med Chem, 2014).

Experiments:
Blood [1] = assay: Biodistribution in Sprague-Dawley rat blood at 14.8 to 18.5 MBq, iv treated with MP-10 for 5 mins prior to compound administration measured at 30 mins post-injection by gamma counting analysis; format: ADME, organism-based; settings: in vivo, 0.5 h
Blood [2] = assay: Biodistribution in Sprague-Dawley rat blood at 14.8 to 18.5 MBq, iv measured at 5 mins post-injection by gamma counting analysis; format: ADME, organism-based; settings: in vivo
Lung [3] = assay: Biodistribution in Sprague-Dawley rat lung at 14.8 to 18.5 MBq, iv measured at 5 mins post-injection by gamma counting analysis; format: ADME, organism-based; settings: in vivo
Liver [4] = assay: Biodistribution in Sprague-Dawley rat liver at 14.8 to 18.5 MBq, iv measured at 5 mins post-injection by gamma counting analysis; format: ADME, organism-based; settings: in vivo
Kidney [5] = assay: Biodistribution in Sprague-Dawley rat kidney at 14.8 to 18.5 MBq, iv measured at 5 mins post-injection by gamma counting analysis; format: ADME, organism-based; settings: in vivo
Muscle tissue [6] = assay: Biodistribution in Sprague-Dawley rat muscle at 14.8 to 18.5 MBq, iv measured at 5 mins post-injection by gamma counting analysis; format: ADME, organism-based; settings: in vivo
Heart [7] = assay: Biodistribution in Sprague-Dawley rat heart at 14.8 to 18.5 MBq, iv measured at 5 mins post-injection by gamma counting analysis; format: ADME, organism-based; settings: in vivo
Striatum [8] = assay: Biodistribution in Sprague-Dawley rat striatum at 14.8 to 18.5 MBq, iv measured at 5 mins post-injection by gamma counting analysis; format: ADME, organism-based; settings: in vivo
Brain [9] = assay: Biodistribution in Sprague-Dawley rat brain at 14.8 to 18.5 MBq, iv measured at 5 mins post-injection by gamma counting analysis; format: ADME, organism-based; settings: in vivo
Blood [10] = assay: Biodistribution in Sprague-Dawley rat blood at 14.8 to 18.5 MBq, iv measured at 30 mins post-injection by gamma counting analysis; format: ADME, organism-based; settings: in vivo, 0.5 h
Lung [11] = assay: Biodistribution in Sprague-Dawley rat lung at 14.8 to 18.5 MBq, iv measured at 30 mins post-injection by gamma counting analysis; format: ADME, organism-based; settings: in vivo, 0.5 h
Liver [12] = assay: Biodistribution in Sprague-Dawley rat liver at 14.8 to 18.5 MBq, iv measured at 30 mins post-injection by gamma counting analysis; format: ADME, organism-based; settings: in vivo, 0.5 h
Muscle tissue [13] = assay: Biodistribution in Sprague-Dawley rat muscle at 14.8 to 18.5 MBq, iv measured at 30 mins post-injection by gamma counting analysis; format: ADME, organism-based; settings: in vivo, 0.5 h
Cerebellum [14] = assay: Biodistribution in Sprague-Dawley rat cerebellum at 14.8 to 18.5 MBq, iv measured at 30 mins post-injection by gamma counting analysis; format: ADME, organism-based; settings: in vivo, 0.5 h
Striatum [15] = assay: Biodistribution in Sprague-Dawley rat striatum at 14.8 to 18.5 MBq, iv measured at 30 mins post-injection by gamma counting analysis; format: ADME, organism-based; settings: in vivo, 0.5 h
Brain [16] = assay: Biodistribution in Sprague-Dawley rat brain at 14.8 to 18.5 MBq, iv measured at 30 mins post-injection by gamma counting analysis; format: ADME, organism-based; settings: in vivo, 0.5 h
Blood [17] = assay: Biodistribution in Sprague-Dawley rat blood at 14.8 to 18.5 MBq, iv measured at 60 mins post-injection by gamma counting analysis; format: ADME, organism-based; settings: in vivo, 1 h
Liver [18] = assay: Biodistribution in Sprague-Dawley rat liver at 14.8 to 18.5 MBq, iv measured at 60 mins post-injection by gamma counting analysis; format: ADME, organism-based; settings: in vivo, 1 h
Heart [19] = assay: Biodistribution in Sprague-Dawley rat heart at 14.8 to 18.5 MBq, iv measured at 60 mins post-injection by gamma counting analysis; format: ADME, organism-based; settings: in vivo, 1 h
Brain [20] = assay: Biodistribution in Sprague-Dawley rat brain at 14.8 to 18.5 MBq, iv measured at 60 mins post-injection by gamma counting analysis; format: ADME, organism-based; settings: in vivo, 1 h
Liver [21] = assay: Biodistribution in Sprague-Dawley rat liver at 14.8 to 18.5 MBq, iv treated with MP-10 for 5 mins prior to compound administration measured at 30 mins post-injection by gamma counting analysis; format: ADME, organism-based; settings: in vivo, 0.5 h
Kidney [22] = assay: Biodistribution in Sprague-Dawley rat kidney at 14.8 to 18.5 MBq, iv treated with MP-10 for 5 mins prior to compound administration measured at 30 mins post-injection by gamma counting analysis; format: ADME, organism-based; settings: in vivo, 0.5 h
Muscle tissue [23] = assay: Biodistribution in Sprague-Dawley rat muscle at 14.8 to 18.5 MBq, iv treated with MP-10 for 5 mins prior to compound administration measured at 30 mins post-injection by gamma counting analysis; format: ADME, organism-based; settings: in vivo, 0.5 h
Rattus norvegicus = assay: Biodistribution in Sprague-Dawley rat fat at 14.8 to 18.5 MBq, iv treated with MP-10 for 5 mins prior to compound administration measured at 30 mins post-injection by gamma counting analysis; format: ADME, organism-based, Adipose tissue; settings: in vivo, 0.5 h
Heart [24] = assay: Biodistribution in Sprague-Dawley rat heart at 14.8 to 18.5 MBq, iv treated with MP-10 for 5 mins prior to compound administration measured at 30 mins post-injection by gamma counting analysis; format: ADME, organism-based; settings: in vivo, 0.5 h
Cerebellum [25] = assay: Biodistribution in Sprague-Dawley rat cerebellum at 14.8 to 18.5 MBq, iv treated with MP-10 for 5 mins prior to compound administration measured at 30 mins post-injection by gamma counting analysis; format: ADME, organism-based; settings: in vivo, 0.5 h
Brain [26] = assay: Biodistribution in Sprague-Dawley rat brain at 14.8 to 18.5 MBq, iv treated with MP-10 for 5 mins prior to compound administration measured at 30 mins post-injection by gamma counting analysis; format: ADME, organism-based; settings: in vivo, 0.5 h
Nucleic Acid [27] = assay: Ratio of drug level in striatum to cerebellum in Sprague-Dawley rat at 14.8 to 18.5 MBq, iv measured at 30 mins post-injection by gamma counting analysis; format: ADME, organism-based; settings: in vivo, 0.5 h
Nucleic Acid [28] = assay: Ratio of drug level in striatum to cerebellum in Sprague-Dawley rat at 14.8 to 18.5 MBq, iv measured at 60 mins post-injection by gamma counting analysis; format: ADME, organism-based; settings: in vivo, 1 h
[29] = Biodistribution in cynomolgus monkey cerebellum at 260 to 370 MBq, iv measured at 20 to 100 mins post-injection by microPET analysis; format: ADME, organism-based, Macaca fascicularis; settings: in vivo
Frontal cortex = assay: Biodistribution in cynomolgus monkey frontal cortex at 260 to 370 MBq, iv measured at 20 to 100 mins post-injection by microPET analysis; format: ADME, organism-based, Macaca fascicularis; settings: in vivo
[30] = Biodistribution in cynomolgus monkey temporal cortex at 260 to 370 MBq, iv measured at 20 to 100 mins post-injection by microPET analysis; format: ADME, organism-based, Macaca fascicularis; settings: in vivo
[31] = Biodistribution in cynomolgus monkey hippocampus at 260 to 370 MBq, iv measured at 20 to 100 mins post-injection by microPET analysis; format: ADME, organism-based, Macaca fascicularis; settings: in vivo
Occipital cortex = assay: Biodistribution in cynomolgus monkey occipital cortex at 260 to 370 MBq, iv measured at 20 to 100 mins post-injection by microPET analysis; format: ADME, organism-based, Macaca fascicularis; settings: in vivo
[32] = Biodistribution in cynomolgus monkey white matter at 260 to 370 MBq, iv measured at 20 to 100 mins post-injection by microPET analysis; format: ADME, organism-based, Macaca fascicularis; settings: in vivo
Plasma [33] = assay: Metabolic stability in iv dosed cynomolgus monkey plasma assessed as compound remaining measured at 5 to 60 mins by HPLC analysis; format: ADME, organism-based, Macaca fascicularis; settings: in vivo
[34] = Metabolic stability in iv dosed cynomolgus monkey RBC assessed as compound remaining measured at 5 to 60 mins by HPLC analysis; format: ADME, organism-based, Macaca fascicularis, Erythrocyte; settings: in vivo
Plasma [35] = assay: Metabolic stability in iv dosed cynomolgus monkey plasma protein pellet under deproteinated condition assessed as compound remaining measured at 5 to 60 mins by HPLC analysis; format: ADME, organism-based, Macaca fascicularis; settings: in vivo

| SMILES | Drug uptake (Blood [1]) [% ID/g] | Drug uptake (Blood [2]) [% ID/g] | Drug uptake (Lung [3]) [% ID/g] | Drug uptake (Liver [4]) [% ID/g] | Drug uptake (Kidney [5]) [% ID/g] | Drug uptake (Muscle tissue [6]) [% ID/g] | Drug uptake (Heart [7]) [% ID/g] | Drug uptake (Striatum [8]) [% ID/g] | Drug uptake (Brain [9]) [% ID/g] | Drug uptake (Blood [10]) [% ID/g] | Drug uptake (Lung [11]) [% ID/g] | Drug uptake (Liver [12]) [% ID/g] | Drug uptake (Muscle tissue [13]) [% ID/g] | Drug uptake (Cerebellum [14]) [% ID/g] | Drug uptake (Striatum [15]) [% ID/g] | Drug uptake (Brain [16]) [% ID/g] | Drug uptake (Blood [17]) [% ID/g] | Drug uptake (Liver [18]) [% ID/g] | Drug uptake (Heart [19]) [% ID/g] | Drug uptake (Brain [20]) [% ID/g] | further results |
| --- | --- | --- | --- | --- | --- | --- | --- | --- | --- | --- | --- | --- | --- | --- | --- | --- | --- | --- | --- | --- | --- |
| Cn1cc(-c2ccncc2)c(-c2ccc(OCc3nc4ccccc4cc3O[11CH3])cc2)n1 | 0.407 | 0.679 | 1.602 | 11.005 | 4.354 | 0.412 | 0.733 | 0.488 | 0.231 | 0.321 | 0.408 | 7.345 | 0.244 | 0.097 | 0.452 | 0.133 | 0.275 | 6.398 | 0.199 | 0.095 | Drug uptake (Liver [21]): 5.781 % ID/g; Drug uptake (Kidney [22]): 1.523 % ID/g; Drug uptake (Muscle tissue [23]): 0.257 % ID/g; Drug uptake (Rattus norvegicus): 1.353 % ID/g; Drug uptake (Heart [24]): 0.34 % ID/g; Drug uptake (Cerebellum [25]): 0.119 % ID/g; Drug uptake (Brain [26]): 0.128 % ID/g; Ratio (Nucleic Acid [27]): 4.6; Ratio (Nucleic Acid [28]): 6; Drug uptake [29]: Active; Drug uptake (Frontal cortex): Active; Drug uptake [30]: Active; Drug uptake [31]: Active; Drug uptake (Occipital cortex): Active; Drug uptake [32]: Active; Stability (Plasma [33]): 65%; Stability [34]: 25%; Stability (Plasma [35]): 5% |
| Cn1cc(-c2ccncc2)c(-c2ccc(OCc3cc(O[11CH3])c4ccccc4n3)cc2)n1 | 0.343 | 0.268 | 0.89 | 7.08 | 2.34 | 0.258 | 0.464 | 0.352 | 0.21 | 0.192 | 0.233 | 10.085 | 0.133 | 0.066 | 0.23 | 0.087 | 0.152 | 8.941 | 0.121 | 0.057 | Drug uptake (Liver [21]): 4.723 % ID/g; Drug uptake (Kidney [22]): 1.072 % ID/g; Drug uptake (Muscle tissue [23]): 0.224 % ID/g; Drug uptake (Rattus norvegicus): 0.697 % ID/g; Drug uptake (Heart [24]): 0.31 % ID/g; Drug uptake (Cerebellum [25]): 0.112 % ID/g; Drug uptake (Brain [26]): 0.114 % ID/g; Ratio (Nucleic Acid [27]): 3.8; Ratio (Nucleic Acid [28]): 4.5; Drug uptake [29]: Active; Drug uptake (Frontal cortex): Active; Drug uptake [30]: Active; Drug uptake [31]: Active; Drug uptake (Occipital cortex): Active; Drug uptake [32]: Active; Stability (Plasma [33]): 65%; Stability [34]: 25%; Stability (Plasma [35]): 5% |
